Laboratory results: ChEMBL document CHEMBL1201862, “PubChem BioAssay data set” (2004)
Activity calls are given as the source filed them.

What was measured:
[1] = HEp-2 cell cytotoxicity, dose response, cytotoxicity control for RSV inhibitor project, HTS (AID 2410); assay type: functional; conditions: human respiratory syncytial virus
Vasopressin V1a receptor = Vasopressin V1a receptor (Homo sapiens, UniProt P37288); test: Counterscreen for Oxytocin Receptor (OXTR) agonists: Fluorescence-based cell-based high throughput dose response assay to identify agonists of the vasopressin 1 receptor (V1R). [Related pubchem assays: 2435 (Primary screen (OXTR agonists in singlicate)), 434991 (Counterscreen (V1R agonists in triplicate)), 2482 (Summary (OXTR agonists)) …; assay type: functional
Sequence of Vasopressin V1a receptor (P37288 whole entry): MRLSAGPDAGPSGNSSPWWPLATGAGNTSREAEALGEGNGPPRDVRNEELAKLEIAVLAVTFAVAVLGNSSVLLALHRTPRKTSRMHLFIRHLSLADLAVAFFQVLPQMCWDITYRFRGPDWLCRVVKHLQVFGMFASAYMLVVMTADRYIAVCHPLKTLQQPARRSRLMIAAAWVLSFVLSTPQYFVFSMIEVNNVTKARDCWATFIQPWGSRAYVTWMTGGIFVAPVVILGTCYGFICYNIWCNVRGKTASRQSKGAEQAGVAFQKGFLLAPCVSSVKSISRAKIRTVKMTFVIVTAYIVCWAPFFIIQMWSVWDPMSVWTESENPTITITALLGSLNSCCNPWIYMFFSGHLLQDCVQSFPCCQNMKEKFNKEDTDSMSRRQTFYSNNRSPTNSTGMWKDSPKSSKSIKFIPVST

Oxytocin receptor = Oxytocin receptor (Homo sapiens, UniProt P30559); test: Fluorescence-based cell-based high throughput dose response assay for agonists of the Oxytocin Receptor (OXTR). [Related pubchem assays: 2435 (Primary screen (OXTR agonists in singlicate)), 434991 (Counterscreen (V1R agonists in triplicate)), 2482 (Summary (OXTR agonists)), 434963 (Confirmation screen (OXTR agonists in triplicate))]; assay type: functional
Sequence of Oxytocin receptor (P30559 whole entry): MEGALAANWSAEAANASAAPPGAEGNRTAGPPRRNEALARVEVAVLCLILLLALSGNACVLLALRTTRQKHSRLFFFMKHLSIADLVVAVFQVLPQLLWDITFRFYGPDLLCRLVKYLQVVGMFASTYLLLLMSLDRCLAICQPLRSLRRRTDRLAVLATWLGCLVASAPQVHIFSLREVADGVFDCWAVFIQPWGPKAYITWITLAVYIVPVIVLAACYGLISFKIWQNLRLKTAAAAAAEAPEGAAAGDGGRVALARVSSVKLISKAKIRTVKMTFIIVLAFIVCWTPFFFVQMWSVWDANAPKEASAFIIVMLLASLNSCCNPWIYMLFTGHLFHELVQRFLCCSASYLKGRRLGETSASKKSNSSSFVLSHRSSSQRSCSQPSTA

[2] = biological target: T1, Corticotropin-releasing factor receptor 2/Corticotropin-releasing factor-binding protein (Homo sapiens, UniProt P24387+Q13324); test: activators of CRF receptor 2 with binding protein – uHTS hits, confirmation (AID 602473); assay type: functional; conditions: read-out: EC50_Mean
T1 sequence (Q13324 whole entry): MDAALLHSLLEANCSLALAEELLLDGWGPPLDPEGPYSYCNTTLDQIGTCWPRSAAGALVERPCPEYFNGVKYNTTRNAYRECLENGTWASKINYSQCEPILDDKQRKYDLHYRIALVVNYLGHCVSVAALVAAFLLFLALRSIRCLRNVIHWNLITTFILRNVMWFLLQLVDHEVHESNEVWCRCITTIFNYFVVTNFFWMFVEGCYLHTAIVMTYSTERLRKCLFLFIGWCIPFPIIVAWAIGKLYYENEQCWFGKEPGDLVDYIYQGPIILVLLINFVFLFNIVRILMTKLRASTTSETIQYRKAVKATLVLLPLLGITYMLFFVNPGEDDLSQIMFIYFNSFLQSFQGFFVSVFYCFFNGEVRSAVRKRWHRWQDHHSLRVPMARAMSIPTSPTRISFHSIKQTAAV
T1 sequence (P24387 whole entry): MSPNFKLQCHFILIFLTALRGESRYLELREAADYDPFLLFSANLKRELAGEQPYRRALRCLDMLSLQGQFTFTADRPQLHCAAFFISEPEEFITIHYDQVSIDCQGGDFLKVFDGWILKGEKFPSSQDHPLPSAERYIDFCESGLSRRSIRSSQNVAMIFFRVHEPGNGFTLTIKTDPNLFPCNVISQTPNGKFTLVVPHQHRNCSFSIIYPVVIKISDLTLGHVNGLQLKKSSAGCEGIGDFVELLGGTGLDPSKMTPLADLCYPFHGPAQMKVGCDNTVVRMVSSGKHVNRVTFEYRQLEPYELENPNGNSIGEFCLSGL

[3] = Vero cell cytotoxicity, dose response, cytotoxicity control for Vif-APOBEC3G degradation inhibitor project, Vero cells (AID 1117358); assay type: functional; conditions: Human immunodeficiency virus 1, Vero
[4] = biological target: Serine/threonine-protein phosphatase PP1-alpha catalytic subunit (Homo sapiens, UniProt P62136); test: PP1 phosphatase inhibitors, dose response, biochemical, fluorescence (AID 2403);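 further: phosphatase turnover of OMFP into fluorescent 3-O-methylfluorescein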
Sequence of Serine/threonine-protein phosphatase PP1-alpha catalytic subunit (P62136 whole entry): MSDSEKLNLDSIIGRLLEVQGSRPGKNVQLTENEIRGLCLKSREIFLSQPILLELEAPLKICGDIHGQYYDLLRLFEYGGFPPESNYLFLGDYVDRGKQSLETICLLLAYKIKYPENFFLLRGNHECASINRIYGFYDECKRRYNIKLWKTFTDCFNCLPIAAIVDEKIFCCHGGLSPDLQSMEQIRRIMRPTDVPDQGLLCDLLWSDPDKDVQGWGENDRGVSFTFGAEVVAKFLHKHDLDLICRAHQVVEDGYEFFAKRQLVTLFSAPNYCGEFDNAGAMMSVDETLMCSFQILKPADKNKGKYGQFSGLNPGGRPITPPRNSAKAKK

[5] = biological target: T2, Serine/threonine-protein phosphatase (Homo sapiens, UniProt Q9BPW0); test: Counterscreen for inhibitors of PP1: fluorescence-based biochemical high throughput dose response assay to identify inhibitors of Protein Phosphatase 5 (PP5). [Related pubchem assays: 2034 (Summary (PP5 inhibitors)), 1987 (PP5 inhibitors in singlate), 2235 (PP1 inhibitors in singlate)]
T2 sequence (Q9BPW0 whole entry): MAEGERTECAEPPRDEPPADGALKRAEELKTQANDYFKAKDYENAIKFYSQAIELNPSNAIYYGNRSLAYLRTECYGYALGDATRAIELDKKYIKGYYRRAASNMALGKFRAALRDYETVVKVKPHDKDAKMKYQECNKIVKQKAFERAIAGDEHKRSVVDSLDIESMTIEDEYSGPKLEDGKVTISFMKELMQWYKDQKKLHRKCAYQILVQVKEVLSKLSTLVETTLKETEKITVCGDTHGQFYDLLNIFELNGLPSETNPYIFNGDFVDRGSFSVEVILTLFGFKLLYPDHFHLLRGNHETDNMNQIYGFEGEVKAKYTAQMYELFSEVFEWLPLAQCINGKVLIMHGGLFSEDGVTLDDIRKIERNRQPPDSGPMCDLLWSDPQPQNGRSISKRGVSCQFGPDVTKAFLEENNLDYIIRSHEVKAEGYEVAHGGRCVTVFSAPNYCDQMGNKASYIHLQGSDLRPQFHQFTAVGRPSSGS

Nonstructural protein 1 = Nonstructural protein 1 (Influenza A virus, UniProt Q194T2); assay type: functional, Influenza A virus (A/California/07/2009(H1N1))
Sequence of Nonstructural protein 1 (Q194T2 whole entry): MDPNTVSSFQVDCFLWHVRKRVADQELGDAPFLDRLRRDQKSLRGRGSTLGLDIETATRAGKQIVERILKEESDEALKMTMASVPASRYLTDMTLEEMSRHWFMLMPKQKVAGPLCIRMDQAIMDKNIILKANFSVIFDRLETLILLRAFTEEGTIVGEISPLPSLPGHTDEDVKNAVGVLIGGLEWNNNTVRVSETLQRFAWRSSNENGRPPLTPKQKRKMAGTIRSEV

[6] = biological target: G2/mitotic-specific cyclin-B1 (Homo sapiens, UniProt P14635); test: Counterscreen assay for inhibitors of Wee1 degradation: dose response cell-based assay to identify inhibitors of cyclin B degradation. [Related pubchem assays: 1410, 1321 ]; assay type: functional
Sequence of G2/mitotic-specific cyclin-B1 (P14635 whole entry): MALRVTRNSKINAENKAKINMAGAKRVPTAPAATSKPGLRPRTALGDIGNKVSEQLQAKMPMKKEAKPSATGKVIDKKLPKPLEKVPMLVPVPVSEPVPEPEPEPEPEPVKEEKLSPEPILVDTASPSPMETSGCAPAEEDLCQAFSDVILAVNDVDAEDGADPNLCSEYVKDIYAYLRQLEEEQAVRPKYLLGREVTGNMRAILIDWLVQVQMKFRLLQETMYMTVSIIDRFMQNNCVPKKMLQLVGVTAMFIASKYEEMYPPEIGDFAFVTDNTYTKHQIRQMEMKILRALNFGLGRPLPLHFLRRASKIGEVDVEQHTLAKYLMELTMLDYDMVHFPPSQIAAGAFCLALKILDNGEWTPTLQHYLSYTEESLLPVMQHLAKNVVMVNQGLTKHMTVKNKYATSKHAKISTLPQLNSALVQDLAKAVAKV

Wee1-like protein kinase = Wee1-like protein kinase (Homo sapiens, UniProt P30291); test: Dose Response Cell-based Assay for Inhibitors of Wee1 Degradation. [Related pubchem assays: 1410, 1321 ]; assay type: functional
Sequence of Wee1-like protein kinase (P30291 whole entry): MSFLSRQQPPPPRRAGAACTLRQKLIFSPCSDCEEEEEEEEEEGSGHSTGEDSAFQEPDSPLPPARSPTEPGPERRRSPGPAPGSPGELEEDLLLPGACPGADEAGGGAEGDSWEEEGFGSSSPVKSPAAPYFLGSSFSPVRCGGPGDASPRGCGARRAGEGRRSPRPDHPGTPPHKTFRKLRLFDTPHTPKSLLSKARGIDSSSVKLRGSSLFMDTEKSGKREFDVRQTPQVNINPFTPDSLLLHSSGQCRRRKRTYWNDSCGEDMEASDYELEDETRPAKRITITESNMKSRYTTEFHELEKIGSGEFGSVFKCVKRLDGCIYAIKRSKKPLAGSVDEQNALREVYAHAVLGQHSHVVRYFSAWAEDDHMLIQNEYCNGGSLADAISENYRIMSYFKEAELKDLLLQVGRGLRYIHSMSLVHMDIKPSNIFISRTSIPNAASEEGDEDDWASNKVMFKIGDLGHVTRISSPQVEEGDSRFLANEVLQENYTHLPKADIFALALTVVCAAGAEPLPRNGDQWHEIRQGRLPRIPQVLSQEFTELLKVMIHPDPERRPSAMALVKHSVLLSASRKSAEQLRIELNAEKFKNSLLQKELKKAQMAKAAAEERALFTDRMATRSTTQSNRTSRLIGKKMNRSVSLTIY

[7] = THP-1 cell cytotoxicity, dose response, cytotoxicity control for non-replicating M. tuberculosis project (AID 489025); assay type: functional
[8] = Vero E6 cell cytotoxicity, dose response, cytotoxicity control for non-replicating M. tuberculosis project, secondary assay (AID 492998); assay type: functional, VeroE6; conditions: Vero C1008
[9] = cytotoxicity in HEK-293T cells, dose response, cytotoxicity control for TCR NF-kB inhibitor project, luminescence, T-cell screen hits (AID 489026); assay type: functional, cell-based;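 further: cells exposed to compound about 14 hours before the viability readout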
cells = assay type: functional
Aspartyl aminopeptidase = Aspartyl aminopeptidase (Plasmodium falciparum 3D7, UniProt Q8I2J3)
Sequence of Aspartyl aminopeptidase (Q8I2J3 whole entry): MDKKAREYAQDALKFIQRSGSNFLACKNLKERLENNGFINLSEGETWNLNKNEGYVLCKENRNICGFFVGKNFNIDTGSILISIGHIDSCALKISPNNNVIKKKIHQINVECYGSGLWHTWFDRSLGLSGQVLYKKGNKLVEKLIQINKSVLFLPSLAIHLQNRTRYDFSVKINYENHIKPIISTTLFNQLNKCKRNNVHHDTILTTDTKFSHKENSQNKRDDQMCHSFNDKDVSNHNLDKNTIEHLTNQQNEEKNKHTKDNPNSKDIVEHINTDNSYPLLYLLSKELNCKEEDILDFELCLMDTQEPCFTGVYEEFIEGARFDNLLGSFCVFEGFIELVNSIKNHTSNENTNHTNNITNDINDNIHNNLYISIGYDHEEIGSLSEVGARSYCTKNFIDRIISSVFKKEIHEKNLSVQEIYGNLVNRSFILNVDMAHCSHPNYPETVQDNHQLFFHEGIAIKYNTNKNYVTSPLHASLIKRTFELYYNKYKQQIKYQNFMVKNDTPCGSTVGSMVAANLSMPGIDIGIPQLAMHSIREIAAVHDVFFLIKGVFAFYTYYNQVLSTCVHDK

Procathepsin L = Procathepsin L (Homo sapiens, UniProt P07711)
Sequence of Procathepsin L (P07711 whole entry): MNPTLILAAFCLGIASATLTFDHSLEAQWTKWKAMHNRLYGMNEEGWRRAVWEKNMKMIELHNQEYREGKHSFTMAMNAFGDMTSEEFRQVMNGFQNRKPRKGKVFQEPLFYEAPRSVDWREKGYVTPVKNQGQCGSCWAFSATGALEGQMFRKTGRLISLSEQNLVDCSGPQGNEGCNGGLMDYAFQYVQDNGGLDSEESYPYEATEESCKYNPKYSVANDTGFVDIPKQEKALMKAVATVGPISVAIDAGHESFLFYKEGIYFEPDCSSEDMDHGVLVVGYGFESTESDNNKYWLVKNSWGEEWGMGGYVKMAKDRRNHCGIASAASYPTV

Large T antigen = Large T antigen (Simian virus 40, UniProt P03070); assay type: functional, Betapolyomavirus macacae;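 further: Confirmatory-stage PubChem screen for compounds that inhibit SV40 T antigen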
Sequence of Large T antigen (P03070 whole entry): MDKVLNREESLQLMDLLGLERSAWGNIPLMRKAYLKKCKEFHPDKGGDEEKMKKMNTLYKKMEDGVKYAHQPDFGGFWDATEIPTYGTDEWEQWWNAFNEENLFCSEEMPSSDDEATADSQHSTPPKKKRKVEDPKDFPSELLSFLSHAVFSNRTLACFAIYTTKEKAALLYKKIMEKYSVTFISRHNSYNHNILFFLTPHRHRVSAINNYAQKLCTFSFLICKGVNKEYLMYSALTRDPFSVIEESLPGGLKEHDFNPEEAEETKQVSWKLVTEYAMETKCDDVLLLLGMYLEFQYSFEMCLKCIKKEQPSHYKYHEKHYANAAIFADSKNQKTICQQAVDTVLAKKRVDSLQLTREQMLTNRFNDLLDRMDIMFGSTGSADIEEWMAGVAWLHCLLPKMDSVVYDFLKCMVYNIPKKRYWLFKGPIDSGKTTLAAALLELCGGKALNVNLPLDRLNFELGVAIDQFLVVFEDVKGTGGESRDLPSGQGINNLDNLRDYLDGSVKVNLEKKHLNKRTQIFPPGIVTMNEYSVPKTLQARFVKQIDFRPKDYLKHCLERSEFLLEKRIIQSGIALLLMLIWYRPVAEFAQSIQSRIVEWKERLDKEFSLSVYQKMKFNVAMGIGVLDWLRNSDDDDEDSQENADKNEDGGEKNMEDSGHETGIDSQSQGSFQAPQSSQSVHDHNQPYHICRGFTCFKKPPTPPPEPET

[10] = biological target: T3, Mannose-6-phosphate isomerase (Homo sapiens, UniProt P34949); test: inhibitors of human PMI, primary screen, biochemical, fluorescence intensity, coupled assay (AID 1209)
T3 sequence (P34949 whole entry): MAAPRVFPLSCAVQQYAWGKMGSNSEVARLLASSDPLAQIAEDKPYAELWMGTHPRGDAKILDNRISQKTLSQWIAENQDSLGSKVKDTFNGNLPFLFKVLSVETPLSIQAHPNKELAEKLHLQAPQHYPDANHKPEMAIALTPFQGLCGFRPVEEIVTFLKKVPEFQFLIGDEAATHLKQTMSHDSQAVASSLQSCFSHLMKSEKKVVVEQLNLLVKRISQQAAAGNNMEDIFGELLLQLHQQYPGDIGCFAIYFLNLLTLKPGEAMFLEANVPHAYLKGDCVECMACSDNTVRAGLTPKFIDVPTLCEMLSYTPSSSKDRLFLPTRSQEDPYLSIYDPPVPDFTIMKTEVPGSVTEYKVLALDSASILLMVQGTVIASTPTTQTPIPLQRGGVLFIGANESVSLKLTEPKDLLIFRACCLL

[11] = biological target: Induced myeloid leukemia cell differentiation protein Mcl-1 (Homo sapiens, UniProt Q07820); test: MCL1-BIM BH3 interaction inhibitors, dose response, biochemical, fluorescence polarization, BIM-BH3 peptide, 1536-well (AID 2217)
Sequence of Induced myeloid leukemia cell differentiation protein Mcl-1 (Q07820 whole entry): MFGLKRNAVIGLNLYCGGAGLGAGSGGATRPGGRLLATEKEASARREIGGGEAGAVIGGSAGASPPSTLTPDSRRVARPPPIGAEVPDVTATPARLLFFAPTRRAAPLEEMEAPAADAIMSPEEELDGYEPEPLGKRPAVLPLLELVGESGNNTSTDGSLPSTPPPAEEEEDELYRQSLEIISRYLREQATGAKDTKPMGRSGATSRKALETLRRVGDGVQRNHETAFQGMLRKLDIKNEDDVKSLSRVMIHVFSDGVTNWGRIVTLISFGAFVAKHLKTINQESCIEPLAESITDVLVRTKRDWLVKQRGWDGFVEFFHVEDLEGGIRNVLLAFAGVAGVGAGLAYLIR

Bcl-2-like protein 1 = Bcl-2-like protein 1 (Homo sapiens, UniProt Q07817); test: BCL-XL inhibitors, dose response, selectivity assay for MCL1 inhibitor project, biochemical, fluorescence polarization, 1536-well (AID 2218)
Sequence of Bcl-2-like protein 1 (Q07817 whole entry): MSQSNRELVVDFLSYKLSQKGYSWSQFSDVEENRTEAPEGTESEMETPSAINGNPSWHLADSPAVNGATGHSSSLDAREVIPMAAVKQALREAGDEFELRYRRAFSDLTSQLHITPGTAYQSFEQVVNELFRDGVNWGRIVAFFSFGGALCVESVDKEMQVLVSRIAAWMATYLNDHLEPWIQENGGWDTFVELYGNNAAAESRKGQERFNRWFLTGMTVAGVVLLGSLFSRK

[12] = biological target: T3, Mannose-6-phosphate isomerase; test: human PMI inhibitors, high substrate, primary screen, biochemical, fluorescence intensity, high mannose 6-phosphate (AID 1220)
[13] = biological target: Dual specificity tyrosine-phosphorylation-regulated kinase 1A (Rattus norvegicus, UniProt Q63470); assay type: biochemical, Homo sapiens
[14] = biological target: T4, Rac GTPase-activating protein 1 (Homo sapiens, UniProt Q9H0H5); test: MgcRacGAP GTPase-activating activity inhibitors, confirmation, biochemical, ADP Hunter fluorescence, primary and confirmatory (AID 624330); assay type: functional
T4 sequence (Q9H0H5 whole entry): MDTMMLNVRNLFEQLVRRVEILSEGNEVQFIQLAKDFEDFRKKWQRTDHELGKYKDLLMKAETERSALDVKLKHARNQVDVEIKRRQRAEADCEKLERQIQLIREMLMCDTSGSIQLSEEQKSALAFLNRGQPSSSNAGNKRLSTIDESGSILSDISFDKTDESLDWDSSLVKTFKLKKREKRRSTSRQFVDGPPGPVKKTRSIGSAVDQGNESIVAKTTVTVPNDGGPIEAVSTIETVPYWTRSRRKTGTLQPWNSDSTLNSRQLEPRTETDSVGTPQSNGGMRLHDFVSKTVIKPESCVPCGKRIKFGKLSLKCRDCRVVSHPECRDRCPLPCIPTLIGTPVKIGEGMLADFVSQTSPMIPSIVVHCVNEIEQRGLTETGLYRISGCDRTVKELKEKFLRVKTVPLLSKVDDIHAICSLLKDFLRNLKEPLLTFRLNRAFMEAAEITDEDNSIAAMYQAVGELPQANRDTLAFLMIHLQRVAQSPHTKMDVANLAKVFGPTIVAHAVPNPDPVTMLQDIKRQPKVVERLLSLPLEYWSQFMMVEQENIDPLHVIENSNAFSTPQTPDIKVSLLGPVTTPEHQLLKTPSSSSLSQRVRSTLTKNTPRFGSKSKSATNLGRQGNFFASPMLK

[15] = biological target: T5, Histone-lysine N-methyltransferase NSD2 (Homo sapiens, UniProt O96028); assay type: biochemical
T5 sequence (O96028 whole entry): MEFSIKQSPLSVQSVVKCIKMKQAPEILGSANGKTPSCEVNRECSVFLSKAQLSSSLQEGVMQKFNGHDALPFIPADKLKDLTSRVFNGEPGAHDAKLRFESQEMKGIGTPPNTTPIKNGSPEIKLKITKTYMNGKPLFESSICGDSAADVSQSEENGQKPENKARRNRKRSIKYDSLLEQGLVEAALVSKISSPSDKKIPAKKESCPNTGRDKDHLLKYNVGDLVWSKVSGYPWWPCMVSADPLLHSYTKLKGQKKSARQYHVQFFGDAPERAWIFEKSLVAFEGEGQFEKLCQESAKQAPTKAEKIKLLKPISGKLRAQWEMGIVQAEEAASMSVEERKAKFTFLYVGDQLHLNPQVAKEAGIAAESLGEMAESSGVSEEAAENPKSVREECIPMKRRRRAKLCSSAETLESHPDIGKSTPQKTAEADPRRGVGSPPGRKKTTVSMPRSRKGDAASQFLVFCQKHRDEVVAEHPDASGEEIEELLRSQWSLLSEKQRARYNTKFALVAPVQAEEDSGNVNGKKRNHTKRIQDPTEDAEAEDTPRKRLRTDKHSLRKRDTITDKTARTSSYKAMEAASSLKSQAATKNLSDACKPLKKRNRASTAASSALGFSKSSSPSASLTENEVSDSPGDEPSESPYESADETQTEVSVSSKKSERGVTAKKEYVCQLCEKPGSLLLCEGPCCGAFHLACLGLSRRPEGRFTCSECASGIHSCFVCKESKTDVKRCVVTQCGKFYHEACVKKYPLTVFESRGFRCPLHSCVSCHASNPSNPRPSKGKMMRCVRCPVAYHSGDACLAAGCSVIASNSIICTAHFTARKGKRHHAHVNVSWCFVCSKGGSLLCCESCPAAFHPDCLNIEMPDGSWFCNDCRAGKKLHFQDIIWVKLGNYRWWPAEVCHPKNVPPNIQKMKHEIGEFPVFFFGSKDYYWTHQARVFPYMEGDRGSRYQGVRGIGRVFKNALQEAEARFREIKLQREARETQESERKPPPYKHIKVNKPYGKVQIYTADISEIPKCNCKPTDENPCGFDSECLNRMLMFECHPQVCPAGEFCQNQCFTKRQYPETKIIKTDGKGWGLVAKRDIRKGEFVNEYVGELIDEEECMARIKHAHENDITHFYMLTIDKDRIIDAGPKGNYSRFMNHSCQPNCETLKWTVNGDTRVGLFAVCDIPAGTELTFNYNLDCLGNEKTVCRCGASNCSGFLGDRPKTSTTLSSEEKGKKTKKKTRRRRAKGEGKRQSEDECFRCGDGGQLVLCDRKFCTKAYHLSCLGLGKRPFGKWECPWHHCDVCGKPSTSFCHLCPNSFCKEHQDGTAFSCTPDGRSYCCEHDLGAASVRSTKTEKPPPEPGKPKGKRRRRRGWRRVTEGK

## Cc1[nH]c2ccccc2c1C(=O)CN1C(=O)NC(C)(c2ccc(Cl)cc2Cl)C1=O (centres undefined)
[1]
  CC50: 13.9 µM (active)
Vasopressin V1a receptor
  EC50: > 29.9 µM (not active)
Oxytocin receptor
  EC50: > 29.9 µM (not active)
[2]
  EC50: 7.59 µM (active)
[3]
  CC50: 38.2 µM (active)

## O=C(Nc1nc(-c2ccccn2)cs1)C1CC(=O)N(c2ccc3c(c2)OCCO3)C1 (centres undefined)
[4]
  IC50: 5.98 µM (active)
[5]
  IC50: > 67 µM (not active)
Nonstructural protein 1
  IC50: 13.5 µM (active)

## O=C(N=Nc1c(O)[nH]c2ccc(Br)cc12)c1ccccc1-n1cccc1
[6]
  EC50: > 49.7 µM (not active)
Wee1-like protein kinase
  EC50: > 49.7 µM (not active)
[7]
  CC50: 1.15 µM (active)
[8]
  CC50: 4.28 µM (active)
[9]
  IC50: > 80 µM (inactive)
cells
  IC50: > 50 µM (active)

## Oc1ccc(C2=Nn3c(nnc3-c3ccco3)SC2)cc1O
Aspartyl aminopeptidase
  IC50: 1.84 µM (active)
Procathepsin L
  IC50: > 59.6 µM (not active)
Large T antigen
  IC50: 3.26 µM (active)
[10]
  IC50: > 50 µM (not active)
[11]
  IC50: 6.16 µM (active)
Bcl-2-like protein 1
  IC50: 68.7 µM (not active)
[12]
  IC50: > 50 µM (not active)
[13]
  AC50: 4.01 µM (active)
[14]
  IC50: 12.2 µM (active)
[15]
  AC50: 6.4 µM (active)
